Test results taken from publication PMC4867491 (Oncogene, 2015).
Read-outs that look alike come from different tables or passages of the source.

Assays:
Assay type in all cases: cell-based, human
DLD-1-S611R = experiment: Proliferation/colony formation assay; details: read-out: median IC50, three independent experiments
HeLa-C604Y = experiment: Proliferation/colony formation assay; details: read-out: median IC50, three independent experiments
HeLa-C604F = experiment: Proliferation/colony formation assay; details: read-out: median IC50, three independent experiments
HCT-116, DLD-1 and U2OS = details: read-out: IC50 (cell viability)
HCT-116-C604Y = experiment: Proliferation/colony formation assay; details: read-out: median IC50, three independent experiments
DLD-1 = experiment: Proliferation/colony formation assay; details: read-out: median IC50; DLD-1 parental; three independent experiments
HeLa-I598F = experiment: Proliferation/colony formation assay; details: read-out: median IC50, three independent experiments
HCT-116 = experiment: Proliferation/colony formation assay; details: read-out: median IC50; HCT-116 parental; three independent experiments
HeLa = experiment: Proliferation/colony formation assay; details: read-out: median IC50; HeLa parental; three independent experiments
HCT-116-I531M = experiment: Proliferation/colony formation assay; details: read-out: median IC50, three independent experiments
[1] = three cancer cell lines HCT-116, DLD-1 and U2OS, Supplementary Figures 2a-c

`Cc1cc(N2CCOCC2)ccc1Nc1nc(NC2CCCCC2)c2[nH]cnc2n1` [MPI-0479605] was tested, and the IC50 (DLD-1-S611R) was over 2000 nM, the IC50 (HeLa-C604Y) was over 2000 nM and the IC50 (HeLa-C604F) was over 2000 nM. It also gave an IC50 (HCT-116, DLD-1 and U2OS; [1]) of 63 to 153 nM and an IC50 (HCT-116-C604Y) of over 2000 nM.

Work on `CCc1cccc(CC)c1NC(=O)c1nn(C)c2c1CCc1cnc(Nc3ccc(C(=O)NC4CCN(C)CC4)cc3OC(F)(F)F)nc1-2` [NMS-P715] yielded an IC50 (HeLa-C604Y) of over 2000 nM, an IC50 (HCT-116, DLD-1 and U2OS; [1]) of over 150 nM and an IC50 (HCT-116-C604Y) of over 2000 nM.

Work on `c1nc2nc(Nc3ccc(N4CCOCC4)cc3)nc(NC3CCCCC3)c2[nH]1` [Reversine, reversine] yielded an IC50 (HCT-116, DLD-1 and U2OS; Homo sapiens) of 63 to 153 nM.

With AZ3146 the IC50 (DLD-1-S611R) was over 5000 nM, the IC50 (DLD-1) was 719 nM and the IC50 (HeLa-C604Y) was over 5000 nM. The IC50 (HeLa-C604F) was 2740 nM, the IC50 (HeLa-I598F) was 3850 nM and the IC50 (HCT-116) was 560 nM. It also gave an IC50 (HeLa) of 1340 nM, an IC50 (HCT-116-C604Y) of over 5000 nM and an IC50 (HCT-116-I531M) of 3060 nM.
